Data: patent US11260083B2, “Compositions and methods for treating and preventing graft versus host disease” (The Regents of the University of Michigan, priority 2016, dated 2022)

Legend:
[1] = test system: parent (C57BL/6J) into F1 (B6D2F1) BMT recipients; assay: Non-irradiated parent into F1 BMT model with butyrate; type: in vivo, mouse; settings: intragastric butyrate
[2] = test system: allogeneic (C57BL/6J→BALB/c) BMT recipients; assay: Allo-BMT with Treg-depleted donor T cells (CD4+CD25− or DREG + DT) and butyrate; type: in vivo, mouse
Method: To further determine whether the salutary effects of local treatment with butyrate on GI GVHD were dependent on donor Treg cells, a BMT was performed utilizing the same HC mismatched BMT model in which C57BL/6J (H-2b) cells are transferred to Balb/c (H-2d) mice. T cell-depleted (TCD) bone marrow was transplanted and purified CD4+CD25− T cells from donors. Vehicle or butyrate was administered to the recipients daily for 1 week, then every other day thereafter as above. […]. J. Exp. Med. 204, 57-63 (2007); Lahl, K. & Sparwasser, T. In vivo depletion of FoxP3+ Tregs using the DEREG mouse model. […]. The Treg depleted T cells were then used as donor cells in the major MHC mismatch model used above. […] To further examine whether the local administration of butyrate impacted donor T cells directly, the HDAC and HAT enzymatic activity was determined in donor T cells harvested from the recipient animals. Both the HDAC activity or HAT activity in the donor T cells harvested from the recipient spleen were similar between butyrate and vehicle treated allogeneic animals.

primary C57BL/6J IECs = assay: CTL assay: allogeneic CD8+ T cell killing of IECs; type: cell-based, mouse; settings: butyrate pre-treated overnight, vs control
Method: CD8+ T cells were isolated from Balb/c (H-2d) mice using anti-CD8 microbeads and LS columns (Miltenyi Biotec) following the manufacturer's instructions. CD8+ T cells were primed in the presence of irradiated (30 Gy) C57BL/6J (H-2b) splenocytes for 6 days prior to culture with primary IECs for 6 h and 16 h. Primary C57BL/6J IECs were harvested and incubated overnight in the presence or absence of butyrate 1 mM in gelatin coated (Cell Biologics Inc.; Chicago, Ill.) 100 mm-culture dishes (Fisher Scientific).
The potential mechanisms that contribute to butyrate-induced protection from severe GVHD were explored. Because (a) butyrate is decreased in IECs, (b) administration of butyrate mitigated GI GVHD independent of Treg cells, but (c) improved junction integrity, it was explored whether butyrate had direct effects on protecting IECs from allo-T cell mediated damage and conditioning. IECs were treated ex vivo with vehicle or butyrate for 24 hours irradiation (6 Gy) or no-irradition, followed by 24 hours of additional incubation with butyrate was performed. […] The ability of butyrate-treated IECs to withstand damage mediated by alloreactive T cells was determined by isolating and culturing primary IECs with butyrate or vehicle control, overnight. […] Because butyrate is a primary energy source for IECs 1-13, it was next determined whether butyrate enhances survival and growth of IECs in vitro. […]

primary CD326+ IECs = assay: Chromatin immunoprecipitation (acetylated histone-H4) of primary CD326+ IECs; type: cell-based, mouse
Method: Primary CD326+ IECs were seeded on gelatin (Cell Biologics; Chicago, Ill.) coated cell culture dishes (100 mm) overnight followed by treatment with butyrate 1 mM for 24 hours. Cells were harvested and used for ChIP analysis using EZ-Magna ChIP kit from EMD Millipore (Billerica, Mass.) following the manufacturers instructions. Briefly, cells were cross-linked with 1% formaldehyde and extracted chromatin was sonicated using a Bioruptor Pico by Diagenode (Denville, N.J.) to yield DNA fragments predominately in the range of 200-1000 bp. Sonicated lysates were immunoprecipitated (IP) utilizing ChIP grade specific antibodies purchased from EMD Millipore for acetylated histone-H4 and RNA Pol II or IgG control antibody. De-crosslinked DNA was next examined by qPCR using primers targeting the promoter region of the target gene BCL-B (Bcl2110) (Forward: […] (SEQ ID NO:50); Reverse: […] (SEQ ID NO:51)), Slc5a8 (Forward: […] (SEQ ID NO:52); Reverse: […] (SEQ ID NO:53), and JAM (F11r) (Forward: […] (SEQ ID NO:54; Reverse: […] (SEQ ID NO:55)). IP efficiency of all samples was verified by qPCR analysis of the promoter region of Gapdh (Forward: […] (SEQ ID NO:56); Reverse: […] (SEQ ID NO:57)). Data analysis was determined as percent of input utilizing the equations: ΔCt[normalized ChIP]=(Ct[ChIP]−(Ct[Input]−[…])) and % Input=2(−ΔCt [normalized ChIP]).

[3] = Treg depleted (DREG + DT) donor T cells

CCCC(=O)[O-].[Na+] [butyrate, sodium butyrate]
survival [1]: improved survival
weight loss [1]: Significantly less weight loss
GVHD ([2]; TCD bone marrow and purified CD4+CD25− donor T cells): Decreased GVHD
clinical GVHD [2, 3]: Significantly improved clinical GVHD
survival [2, 3]: improved survival
weight loss [2, 3]: less weight loss
IECs succumbing to CD8+ T cell killing (primary C57BL/6J IECs; 6 hours co-culture): Fewer butyrate pre-treated IECs succumbed
IECs succumbing to CD8+ T cell killing (primary C57BL/6J IECs; 16 hours co-culture): Fewer butyrate pre-treated IECs succumbed
association of acetylated histone H4 in the promoter region of Slc5a8 (primary CD326+ IECs; IECs (CD326+) treated with butyrate 1 mM 24 hours): increased association
acetylation of histone H4 at the promoter region of Bcl2110 (primary CD326+ IECs; butyrate treated IECs (CD326+)): associated with the promoter region
acetylation of histone H4 at the promoter region of F11r (primary CD326+ IECs; butyrate treated IECs (CD326+)): associated with the promoter region
